Experimental data as given in patent USRE47739E1, “2-(pyridin-2-ylamino)-pyrido[2,3-D]pyrimidin-7-ones” (Warner-Lambert Company LLC, priority 2002, dated 2019).
Where a name gives a salt, the structure may show the parent alone.

Assays:
[1] = target: FGF receptor (FGFr) tyrosine kinase (Homo sapiens, UniProt P11362); assay: Assay for Inhibition of FGFr; assay type: biochemical; conditions: 50 μM ATP, Poly (4:1) glutamate-tyrosine substrate, 25° C.
Protocol: (§1) The assays were carried out as described below.
Assay for Inhibition of FGFr
For FGF receptor (FGFr) tyrosine kinase assays 96-well plates (100 μL/incubation/well), and conditions are optimized to measure the incorporation of ^32P from [γ^32P]ATP into a glutamate-tyrosine co-polymer substrate. Briefly, to each well is added 82.5 μL incubation buffer B (25 mM Hepes (pH 7.0), 150 mM NaCl, 0.1% Triton X-100, 0.2 mM PMSF, 0.2 mM Na3VO4, 10 mM MnCl2) and 750 μg/mL Poly (4:1) glutamate-tyrosine followed by 2.5 μL of the test compound in buffer B and 5 μL of a 7.5 μg/μL FGFr solution to initiate the reaction. Following a 10-minute incubation at 25° C., […] [γ^32P]ATP (0.4 μCi plus 50 μM ATP) is added to each well, and samples are incubated for an additional 10 minutes at 25° C. The reaction is terminated by the addition of 100 μL 30% trichloroacetic acid (TCA) containing 20 mM sodium pyrophosphate and precipitation of material onto glass fiber mats (Wallac). […] Nonspecific activity is defined as radioactivity retained on the filters following incubation of samples with buffer alone (no enzyme). Specific enzymatic activity (enzyme plus buffer) is defined as total activity minus nonspecific activity.

[2] = target: Cdk4/Cyclin D (Homo sapiens, UniProt P11802); assay: Assay for Inhibition of Cdk4/Cyclin D; assay type: biochemical; conditions: 25 μM ATP, retinoblastoma protein substrate, 25° C., 15 minutes
Protocol: as §1
Assay for Inhibition of Cdk4/Cyclin D
The Cdk4 enzyme assay for IC50 determination and kinetic evaluation is performed as follows. 96-well filter plates (Millipore MADVN6550) are used. […] Buffer A containing excess EDTA was used to determine the level of background ^32P in the absence of enzyme activity. All components except the ATP are added to the wells, and the plate is placed on a plate mixer for 2 minutes. The reaction is started by adding [^32P]ATP, and the plate is incubated at 25° C. for 15 minutes. The reaction is terminated by addition of 0.1 mL 20% trichloroacetic acid (TCA). The plate is kept at 4° C. for at least 1 hour to allow the substrate to precipitate. The wells are then washed five times with 0.2 mL 10% TCA, and ^32P incorporation is determined with a beta plate counter (Wallac Inc., Gaithersburg, Md.).

FGF receptor (FGFr) tyrosine kinase, sequence (P11362 22-822): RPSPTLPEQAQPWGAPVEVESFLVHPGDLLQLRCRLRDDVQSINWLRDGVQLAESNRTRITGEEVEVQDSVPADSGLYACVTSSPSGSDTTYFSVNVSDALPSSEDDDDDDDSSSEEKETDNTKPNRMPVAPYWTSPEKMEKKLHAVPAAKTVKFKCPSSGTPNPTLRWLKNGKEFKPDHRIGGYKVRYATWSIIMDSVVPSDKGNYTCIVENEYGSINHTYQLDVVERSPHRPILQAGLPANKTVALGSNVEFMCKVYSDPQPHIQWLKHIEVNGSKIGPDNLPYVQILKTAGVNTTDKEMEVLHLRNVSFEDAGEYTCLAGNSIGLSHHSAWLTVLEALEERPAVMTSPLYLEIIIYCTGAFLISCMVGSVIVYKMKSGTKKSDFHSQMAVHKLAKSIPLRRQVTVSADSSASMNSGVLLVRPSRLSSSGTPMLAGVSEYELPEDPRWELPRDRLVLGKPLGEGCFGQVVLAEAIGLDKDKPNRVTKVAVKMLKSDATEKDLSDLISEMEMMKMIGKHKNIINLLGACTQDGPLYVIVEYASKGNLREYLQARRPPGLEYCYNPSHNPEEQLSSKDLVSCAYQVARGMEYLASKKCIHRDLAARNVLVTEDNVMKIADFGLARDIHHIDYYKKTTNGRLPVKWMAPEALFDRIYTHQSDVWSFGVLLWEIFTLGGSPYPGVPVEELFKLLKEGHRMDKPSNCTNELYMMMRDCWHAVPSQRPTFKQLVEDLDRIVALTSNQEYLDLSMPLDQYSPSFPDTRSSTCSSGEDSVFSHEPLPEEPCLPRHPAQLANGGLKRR
Cdk4/Cyclin D, sequence (P11802 whole entry, species assumed): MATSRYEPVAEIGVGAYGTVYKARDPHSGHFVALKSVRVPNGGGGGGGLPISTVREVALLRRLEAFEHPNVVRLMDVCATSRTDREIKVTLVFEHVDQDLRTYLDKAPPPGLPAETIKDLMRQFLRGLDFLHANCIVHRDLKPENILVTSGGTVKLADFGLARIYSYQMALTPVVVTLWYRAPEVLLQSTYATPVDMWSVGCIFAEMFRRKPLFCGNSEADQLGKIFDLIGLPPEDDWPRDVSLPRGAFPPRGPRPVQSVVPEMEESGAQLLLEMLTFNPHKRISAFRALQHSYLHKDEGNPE
Cdk4/Cyclin D, sequence (P24385 whole entry partner, species assumed): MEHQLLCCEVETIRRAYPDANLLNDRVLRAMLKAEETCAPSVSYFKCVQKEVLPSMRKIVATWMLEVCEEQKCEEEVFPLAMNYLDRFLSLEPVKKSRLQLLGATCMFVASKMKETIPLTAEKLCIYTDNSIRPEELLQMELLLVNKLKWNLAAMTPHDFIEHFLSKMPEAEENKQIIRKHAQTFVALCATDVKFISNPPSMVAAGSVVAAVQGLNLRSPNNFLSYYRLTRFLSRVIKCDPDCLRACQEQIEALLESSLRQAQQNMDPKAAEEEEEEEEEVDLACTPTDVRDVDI

Structure (SMILES) | IC50 [1] [nM] | IC50 [2] [nM]
CC(=O)c1c(C)c2cnc(Nc3ccccn3)nc2n(C2CCCC2)c1=O [Example 82, 6-Acetyl-8-cyclopentyl-5-methyl-2-(pyridin-2-ylamino)-8H-pyrido[2,3-d]pyrimindin-7-one] | > 5000 | 440
O=c1ccc2cnc(Nc3ccc(N4CCNCC4)cn3)nc2n1C1CC1 [Example 64, 8-cyclopropyl-2-(5-piperazin-1-yl-pyridin-2-ylamino)-8H-pyrido[2,3-d]pyrimidin-7-one] | 4470 | 920
CCOCCc1cc2cnc(Nc3ccc(N4CCNCC4)cn3)nc2n(C2CCCC2)c1=O [Example 108, 8-Cyclopentyl-6-(2-ethoxy-ethyl)-2-(5-piperazin-1-yl-pyridin-2-ylamino)-8H-pyrido[2,3-d]pyrimidin-7-one] | > 5000 | 124
Cc1c(Br)c(=O)n(C2CCCC2)c2nc(Nc3ccc(N4CCC(O)CC4)cn3)ncc12 [Example 75, 6-Bromo-8-cyclopentyl-2-(4-hydroxy-3,4,5,6-tetrahydro-2H-[1,3′]bipyridinyl-6′-ylamino)-5-methyl-8H-pyrido[2,3-d]pyrimidin-7-one] | > 5000 | 74
Cc1cc(=O)n(C2CCCC2)c2nc(Nc3ccc(N4CCNCC4)cn3)ncc12 [Example 84, 8-Cyclopentyl-5-methyl-2-(5-piperazin-4-yl-pyridin-2-ylamino)-8H-pyrido[2,3-d]pyrimidin-7-one] | > 5000 | 580
Cc1c(Br)c(=O)n(C2CCCC2)c2nc(Nc3ccc(N4CCOCC4)cn3)ncc12 [Example 98, 6-Bromo-8-cyclopentyl-5-methyl-2-(5-morpholin-4-yl-pyridin-2-ylamino)-8H-pyrido[2,3-d]pyrimidin-7-one] | > 5000 | 1950
CC(C)COc1cc2cnc(Nc3ccc(N4CCNCC4)cn3)nc2n(C2CCCC2)c1=O [Example 22, 8-Cyclopentyl-6-isobutoxy-2-(5-piperazin-1-yl-pyridin-2-ylamino)-8H-pyrido[2.3-d]pyrimidin-7-one hydrochloride] | > 5000 | 1700
CCc1cc2cnc(Nc3ccc(N4CCNCC4)cn3)nc2n(C2CCCC2)c1=O [Example 5, 8-Cyclopentyl-6-ethyl-2-(5-piperazin-1-yl-pyridin-2-ylamino)-8H-pyrido[2,3-d]pyrimidin-7-one hydrochloride] | 990 | 19
NC(=O)c1ccc(Nc2ncc3cc(Br)c(=O)n(C4CCCC4)c3n2)nc1 [Example 14] | – | 260
CN1CCC[C@H]1c1ccc(Nc2ncc3cc(Br)c(=O)n(C4CCCC4)c3n2)nc1 [Example 12, 6-Bromo-8-cyclopentyl-2-[5-((S)-1-methyl-1-pyrrolidin-2-yl)-pyridin-2-ylamino]-8H-pyrido[2,3-d]pyrimidin-7-one hydrochloride] | – | 175
Cc1c(Br)c(=O)n(C2CCCC2)c2nc(Nc3ccc(N4CCCCC4)cn3)ncc12 [Example 103, 6-Bromo-8-cyclopentyl-5-methyl-2-(3,4,5,6-tetrahydro-2H-[1,3]bipyridinyl-6′-ylamino)-8H-pyrido[2,3-d]pyrimidin-7-one] | – | > 5000
CC(C)n1c(=O)ccc2cnc(Nc3ccc(N4CCNCC4)cn3)nc21 [Example 57, 8-isopropyl-2-(5-piperazin-1-yl-pyridin-2-ylamino)-8H-pyrido[2.3-d]pyrimidin-7-one] | > 5000 | > 5000
O=c1c(Br)cc2cnc(Nc3ccccn3)nc2n1C1CCCCC1 [Example 13, 6-Bromo-8-cyclohexyl-2-(pyridin-2-yl-amino)-8H-pyrido[2,3-d]pyrimidin-7-one] | – | > 5000
O=c1c(Br)cc2cnc(Nc3ccccn3)nc2n1C1CCCC1 [Example 38, 6-Bromo-8-cyclopentyl-2-(Pyridin-2-ylamino)-8H-pyrido[2,3-]pyrimidin-7-one] | > 5000 | 950
O=c1c(CO)cc2cnc(Nc3ccc(N4CCNCC4)cn3)nc2n1C1CCCC1 [Example 29, 8-Cyclopentyl-6-hydroxymethyl-2-(5-piperazin-1-yl-pyridin-2-ylamino)-8H-pyrido[2,3-d]pyrimidin-7-one hydrochloride] | 4380 | 13
Cc1c(Br)c(=O)n(C2CCCC2)c2nc(Nc3ccc(N4CCNCC4)cn3)ncc12 [Example 15, 6-Bromo-8-cyclopentyl-5-methyl-2-(5-piperizin-1-yl-pyridin-2-ylamino)-8H-pyrido[2,3-d]pyrimidin-7-one] | > 5000 | 160
CCOC(=O)c1cc2cnc(Nc3ccc(N4CCNCC4)cn3)nc2n(C2CCCC2)c1=O [Example 7, 8-Cyclopentyl-7-oxo-2-(5-piperazin-1-yl-pyridin-2-ylamino)-7,8-dihydro-pyrido[2,3-d]pyrimidine-6-carboxylic acid ethyl ester hydrochloride] | – | 595

The remaining lines, values ahead:

IC50 [1] [nM] | IC50 [2] [nM] | Structure (SMILES)
> 5000 | 36 | CCOCCOc1cc2cnc(Nc3ccc(N4CCNCC4)cn3)nc2n(C2CCCC2)c1=O [Example 53, 8-Cyclopentyl-6-(2-ethoxy-ethoxy)-2-(5-piperazin-1-yl-pyridin-2-ylamino)-8H-pyrido[2,3-d]pyrimidin-7-one]
> 5000 | 4 | CC(=O)c1c(C)c2cnc(Nc3ccc(N4CCOCC4)cn3)nc2n(C2CCCC2)c1=O [Example 100, 6-Acetyl-8-cyclopentyl-5-methyl-2-(5-morpholin-4-yl-pyridin-2-ylamino)-8H-pyrido[2,3-d]pyrimidin-7-one]
– | 19 | CC(=O)c1c(C)c2cnc(Nc3ccc(N4CCC(O)CC4)cn3)nc2n(C2CCCC2)c1=O [Example 77, 6-Acetyl-8-cyclopentyl-2-(4-hydroxy-3,4,5,6-tetrahydro-2H-[1,3′]bipyridinyl-6′-ylamino)-5-methyl-8H-pyrido[2,3-d]pyrimidin-7-one]
> 5000 | 63 | Cc1c(Br)c(=O)n(C2CCCC2)c2nc(Nc3ccc(N4CC(C)NC(C)C4)cn3)ncc12 (stereo not shown) [Example 93, 6-Bromo-8-cyclopentyl-2-[5-(3,5-dimethyl-piperazin-1-yl)-pyridin-2-ylamino]-5-methyl-8H-pyrido[2,3-d]pyrimidin-7-one]
– | 5 | CC(=O)c1c(C)c2cnc(Nc3ccc(N4CCN(C)CC4)cn3)nc2n(C2CCCC2)c1=O [Example 72, 6-Acetyl-8-cyclopentyl-5-methyl-2-[5-(4-methyl-piperazin-1-yl)-pyridin-2-ylamino]-8H-pyrido[2,3-d]pyrimidin-7-one]
– | 51 | O=c1c(F)cc2cnc(Nc3ccc(N4CCNCC4)cn3)nc2n1C1CCCC1 [Example 18, 8-Cyclopentyl-6-fluoro-2-(5-piperazin-1-yl-pyridin-2-ylamino)-8H-pyrido[2,3-d]pyrimidin-7-one hydrochloride]
> 5000 | 18 | CCOCc1cc2cnc(Nc3ccc(N4CCNCC4)cn3)nc2n(C2CCCC2)c1=O [Example 116, 8-Cyclopentyl-6-ethoxymethyl-2-(5-piperazin-1-yl-pyridin-2-ylamino)-8H-pyrido[2,3-d]pyrimidin-7-one]
> 5000 | 31 | COCCOCc1cc2cnc(Nc3ccc(N4CCNCC4)cn3)nc2n(C2CCCC2)c1=O [Example 112, 8-Cyclopentyl-6-(2-methoxy-ethoxymethyl)-2-(5-piperazin-1-yl-pyridin-2-ylamino)-8H-pyrido[2,3-d]pyrimidin-7-one]
> 5000 | 30 | CC(=O)c1c(C)c2cnc(Nc3ccc(N4CC(C)OC(C)C4)cn3)nc2n(C2CCCC2)c1=O (stereo not shown) [Example 130, 6-Acetyl-8-cyclopentyl-2-[5-(2,6-dimethyl-morpholin-4-yl)-pyridin-2-ylamino]-5-methyl-8H-pyrido[2,3-d]pyrimidin-7-one]
– | 5 | CC(=O)c1c(C)c2cnc(Nc3ccc(N4CCCCC4)cn3)nc2n(C2CCCC2)c1=O [Example 105, 6-Acetyl-8-cyclopentyl-5-methyl-2-(3,4,5,6-tetrahydro-2H-[1,3′]bipyridinyl-6′-ylamino)-8H-pyrido[2,3-d]pyrimidin-7-one]
> 5000 | 21 | CC(=O)c1c(C)c2cnc(Nc3ccc(N4CCNC(C)(C)C4)cn3)nc2n(C2CCCC2)c1=O [Example 90, 6-Acetyl-8-cyclopentyl-2-[5-(3,3-dimethyl-piperazin-1-yl)-pyridin-2-ylamino]-5-methyl-8H-pyrido[2,3-d]pyrimidin-7-one]
> 5000 | 12 | CC(=O)c1c(C)c2cnc(Nc3ccc(N4CCCNCC4)cn3)nc2n(C2CCCC2)c1=O [Example 81, 6-Acetyl-8-cyclopentyl-2-(5-[1,4]diazepan-1-yl-pyridin-2-ylamino)-5-methyl-8H-pyrido[2,3-d]pyrimidin-7-one]
